Assay results reported in US20240287463A1, “INDUCIBLE TISSUE CONSTRUCTS AND USES THEREOF” (Massachusetts Institute of Technology, priority 2020, published 2024).

Assays:
[1] = tested on: HUVECs; assay: vascular network in HUVEC/iCasp9-HLF microfluidic devices after fibroblast removal; assay type: cell-based, human; conditions: iCasp9-HLFs removed after only 3 days of co-culture
[2] = tested on: iCasp9-HLF; assay: HUVEC/iCasp9-HLF tissue constructs implanted in mouse fat pad; assay type: in vivo, mice; conditions: 10 mg/kg intraperitoneally on days 5, 7, 9
Protocol: The ability to successfully transplant the described tissue constructs was assessed in mice. Specifically, engineered tissue constructs consisting of HUVECs and iCasp9-human lung fibroblasts (iCasp9-HLF, see Example 7) were cultured for 7 days in vitro. Constructs were then implanted into the intraperitoneal mesenteric parametrial fat pad of mice. Five days after implantation, mice were injected with 10 mg/kg CID or vehicle intraperitoneally. Mice were dosed again on days 7 and 9. Constructs were collected from mice on day 10 post-implantation. Explants were cryosectioned and imaged to visualize the presence of cells.

[3] = tested on: HUVECs; assay: vascular network in HUVEC/iCasp9-HDF microfluidic devices after fibroblast removal (dextran perfusion); assay type: cell-based, human
Protocol: More specifically, the molds for the 2-channel microfluidic devices were constructed using stereolithography (Proto Labs). Polydimethylsiloxane (PDMS) was cured at a standard mixing ratio overnight at 60° C. in the mold, and individual devices were cut and plasma-bonded to glass slides. To enhance ECM bonding to PDMS, the surface inside the tissue chamber of the devices was functionalized with 0.01% poly-L-lysine and 1% glutaraldehyde following plasma-activation and washed overnight in DI water. On the day of seeding, devices were soaked in 70% ethanol (EtOH) and dried. Acupuncture needles (300 μm diameter) (Hwato) were blocked in 0.1% (w/v) bovine serum albumin (BSA) (Sigma) in phosphate buffer saline (PBS) for 45 minutes and inserted through the two needle guides. Devices with needles were UV-sterilized for 15 minutes. Once the needles were inserted, a fibrinogen solution containing human umbilical vein endothelial cells (HUVECs) and growth-arrested human dermal fibroblasts (HDFs) were added into the tissue chamber with thrombin. To prepare the cells for seeding, HDFs or iCasp-9 HDFs were growth-arrested with 10 μg/mL mitomycin in FGM-2 for 2.5 hours and thoroughly washed 5 times in FBM. Both HUVECs and HDFs were lifted from culture plates using TrypLE Express (Gibco), centrifuged at 200 g for 4 minutes, and resuspended to a concentration of 20 million cells/mL in EGM-2. A solution of HUVECs (3 million cells/mL), HDFs or iCasp-9 HDFs (0, 1 million, 3 million, or 6 million cells/mL), fibrinogen (2.5 mg/mL), thrombin (1 U/mL) in EGM-2 was prepared for the bulk hydrogel region of each device. After the addition of thrombin, the solution was quickly injected into the tissue chamber, and the devices were repeatedly rotated while the solution crosslinked. Appropriate media was added to each well of the device, and the devices were placed in the incubator (37° C., 5% CO2). After 15 minutes, the needles were carefully removed from the devices to create 300 μm hollow channels between the wells. Each channel of the device was seeded with additional HUVECs at 2 million cells/ml for at least 5 minutes on each side (top and bottom) in the incubator. Each device received 200 μl of appropriate media daily and cultured on the rocker inside the incubator. Once the fibrinogen polymerized into fibrin, the needles were removed to create two hollow, microfluidic channels. These channels were then seeded with additional HUVECs to line the walls in a monolayer.
Vessel networks were analyzed by fixing all devices with 4% PFA for 30 minutes on a rocker and washing with PBS overnight at 4° C. The devices were then blocked in 3% BSA overnight at 4° C. Lectin (UEA DyLight 649, Vector Labs) was diluted in the blocking solution at 1:100 dilution and added to the devices for another 4° C. overnight incubation. Devices were then washed overnight with PBS at 4° C. and kept in PBS with 0.02% (w/v) sodium azide at 4° C. until imaging. Before imaging, a solution of 500 kDa fluorescein isothiocyanate (FITC)- or tetramethylrhodamine isothiocyanate (TRITC)-conjugated dextran (0.15 mg/ml) was added to one of the microfluidic channels to generate gravity-driven hydrostatic pressure between the two channels of the device. All device images were then captured by a Leica SP8 confocal microscope (Leica, Wetzlar, Germany) using either a Leica 10×/0.30NA W U—V-I WD-3.60 Water or 25×/0.95NA W VISIR WD-2.50 Water objective and Leica LAS X imaging software. […]

[4] = tested on: unmodified J2s; assay: CID exposure of MPCCs plated with unmodified fibroblasts; assay type: cell-based; conditions: data not shown
Description: Specifically, MPCC were fabricated as described previously (S. R. Khetani and S. N. Bhatia (2005) Nat. Biotechnol 26, 120; S. March et al. (2015) Nat. Protoc. 10, 2007). Briefly, collagen was adsorbed in each well of a 96 well plate (glass bottom), and then patterned using an elastomeric polydimethysiloxane mold and oxygen plasma gas ablation. Human hepatocytes were thawed and seeded (70 k/well) on the collagen islands (500 μm with 1,200 μm center-to-center spacing). Adhered hepatocytes (˜10 k/well) were allowed to spread overnight before fibroblasts were seeded for co-culture (7 k/well). Supernatant was collected from cultures every other day and stored at −20° C. Human albumin was quantified using an enzyme-linked immunosorbent assay using a sheep anti-rat albumin antibody (ELISA) (Bethyl Laboratories) and 3,3′,5,5′-tetramethylbenzidine (TMB, Thermo Fisher). Urea concentration was measured using a colorimetric (diacetylmonoxime) assay with acid and heat (Stanbio Labs). CYP3A4 activity was assessed with the luminogenic P450-GloTM CYP450 assay kit (Promega) for nonlytic assays using cultured cells. Cultures were pre-treated with 2 μM rifampin or 1:1,000 DMSO vehicle control prepared in hepatocyte maintenance media for 72 hours (daily replenishment) where indicated. […]

## CC[C@H](C(=O)N1CCCC[C@H]1C(=O)O[C@H](CCc1ccc(OC)c(OC)c1)c1cccc(OCC(=O)NCC(CNC(=O)COc2cccc([C@@H](CCc3ccc(OC)c(OC)c3)OC(=O)[C@@H]3CCCCN3C(=O)[C@@H](CC)c3cc(OC)c(OC)c(OC)c3)c2)CN(C)C)c1)c1cc(OC)c(OC)c(OC)c1 [CID, AP20187]
[1]
  self-assembly of HUVECs at day 7: able to self-assemble into perfusable vasculature
[2]; collected day 10
  integration of engineered vessels with host vessels (anti-TER119): demonstrated vessel integration
[2]; collected day 10 post-implantation
  iCasp9-HLF in explants compared to vehicle treated mice: reduction
[3]; 10 nM CID after 7 days of co-culture
  acute effects on HUVECs / noticeable deterioration of the vascular structure: not observed
[3]; 50 nM CID at day 0
  dextran transport of endothelial network at day 7: none of these structures could transport dextran
[3]; 50 nM CID at day 1
  perfusion of endothelial network at day 7: little to no perfusion
[3]; 50 nM CID at day 3 or day 5
  endothelial network at day 7: highly interconnected and perfusable endothelial networks
[3]; all conditions except day 0 deletion
  average diameter of the perfused vessels versus control: comparable
[4]
  effect of CID exposure on unmodified J2s in MPCCs: unaffected
